Article PMC12748989 (Nature Communications, 2025)

Legend:
[1] = system: MDA-MB-231 cells
[2] = system: PBMC; conditions: 12.5 µM

Row | Structure (SMILES) | Average (percentage cell inhibition), Dmastoparan MDA-MB231 12.5uM [1] [%] | Average (percentage cell inhibition), Mastoparan PBMC [2] [%]
1 | CC[C@H](C)[C@H](NC(=O)[C@H](CCCCN)NC(=O)[C@H](CCCCN)NC(=O)[C@H](C)NC(=O)[C@H](CC(C)C)NC(=O)[C@H](C)NC(=O)[C@H](C)NC(=O)[C@H](CC(C)C)NC(=O)[C@H](C)NC(=O)[C@H](CCCCN)NC(=O)[C@H](CC(C)C)NC(=O)[C@H](CC(N)=O)NC(=O)[C@@H](N)CCC(N)=O)C(=O)N[C@@H](CC(C)C)C(N)=O [Q1] | 44.2177 | 13.6421
2 | CC[C@H](C)[C@H](N)C(=O)N[C@@H](CCCCN)C(=O)N[C@@H](CC(C)C)C(=O)N[C@@H](CCCCN)C(=O)N[C@@H](C)C(=O)N[C@@H](CC(C)C)C(=O)N[C@@H](C)C(=O)N[C@@H](C)C(=O)N[C@@H](CC(C)C)C(=O)N[C@@H](C)C(=O)N[C@@H](CCCCN)C(=O)N[C@@H](CCCCN)C(=O)N[C@H](C(=O)N[C@@H](CC(C)C)C(N)=O)[C@@H](C)CC [K2] | 44.3131 | 14.3506
3 | CC[C@H](C)[C@H](N)C(=O)N[C@@H](CC(N)=O)C(=O)N[C@@H](CC(C)C)C(=O)N[C@@H](CCCCN)C(=O)N[C@@H](C)C(=O)N[C@@H](CC(C)C)C(=O)N[C@@H](C)C(=O)N[C@@H](C)C(=O)N[C@@H](CC(C)C)C(=O)N[C@@H](CO)C(=O)N[C@@H](CCCCN)C(=O)N[C@@H](CCCCN)C(=O)N[C@H](C(=O)N[C@@H](CC(C)C)C(N)=O)[C@@H](C)CC [S10] | 30.5653 | 1.271
4 | CC[C@H](C)[C@H](N)C(=O)N[C@@H](CC(N)=O)C(=O)N[C@@H](CC(C)C)C(=O)N[C@@H](CCCCN)C(=O)N[C@@H](C)C(=O)N[C@@H](CC(C)C)C(=O)N[C@@H](Cc1c[nH]cn1)C(=O)N[C@@H](C)C(=O)N[C@@H](CC(C)C)C(=O)N[C@@H](C)C(=O)N[C@@H](CCCCN)C(=O)N[C@@H](CCCCN)C(=O)N[C@H](C(=O)N[C@@H](CC(C)C)C(N)=O)[C@@H](C)CC [H7] | 37.3401 | 4.935
5 | CC[C@H](C)[C@H](N)C(=O)N[C@@H](CC(N)=O)C(=O)N[C@@H](CC(C)C)C(=O)N[C@@H](CCCCN)C(=O)N[C@@H](C)C(=O)N[C@@H](CC(C)C)C(=O)N[C@@H](C)C(=O)N[C@@H](C)C(=O)N[C@@H](CC(C)C)C(=O)N[C@@H](C)C(=O)N[C@@H](CCCCN)C(=O)N[C@@H](CCC(N)=O)C(=O)N[C@H](C(=O)N[C@@H](CC(C)C)C(N)=O)[C@@H](C)CC [Q12] | 35.4495 | -3.934
6 | CC[C@H](C)[C@H](N)C(=O)N[C@@H](CC(N)=O)C(=O)N[C@@H](CC(C)C)C(=O)N[C@@H](CCCCN)C(=O)N[C@H](C(=O)N[C@@H](CC(C)C)C(=O)N[C@@H](C)C(=O)N[C@@H](C)C(=O)N[C@@H](CC(C)C)C(=O)N[C@@H](C)C(=O)N[C@@H](CCCCN)C(=O)N[C@@H](CCCCN)C(=O)N[C@H](C(=O)N[C@@H](CC(C)C)C(N)=O)[C@@H](C)CC)[C@@H](C)CC [I5] | 71.3869 | 29.3206
7 | CC[C@H](C)[C@H](N)C(=O)N[C@@H](CC(N)=O)C(=O)N[C@@H](CC(C)C)C(=O)N[C@@H](CCCCN)C(=O)N[C@@H](C)C(=O)N[C@@H](CC(C)C)C(=O)N[C@@H](C)C(=O)N[C@@H](C)C(=O)N[C@@H](CC(C)C)C(=O)N[C@@H](C)C(=O)N[C@@H](CCCCN)C(=O)N[C@@H](CCCCN)C(=O)N[C@H](C(=O)N[C@H](C(N)=O)C(C)C)[C@@H](C)CC [V14] | 42.849 | 3.082
8 | CC[C@H](C)[C@H](N)C(=O)N[C@@H](CC(N)=O)C(=O)N[C@H](C(=O)N[C@@H](CCCCN)C(=O)N[C@@H](C)C(=O)N[C@@H](CC(C)C)C(=O)N[C@@H](C)C(=O)N[C@@H](C)C(=O)N[C@@H](CC(C)C)C(=O)N[C@@H](C)C(=O)N[C@@H](CCCCN)C(=O)N[C@@H](CCCCN)C(=O)N[C@H](C(=O)N[C@@H](CC(C)C)C(N)=O)[C@@H](C)CC)[C@@H](C)O [T3] | 21.7833 | 8.955
9 | CC[C@H](C)[C@H](N)C(=O)N[C@@H](CC(N)=O)C(=O)N[C@@H](CC(C)C)C(=O)N[C@@H](CCCCN)C(=O)N[C@@H](C)C(=O)N[C@@H](CC(C)C)C(=O)N[C@@H](C)C(=O)N[C@@H](C)C(=O)N[C@@H](CC(C)C)C(=O)N[C@@H](C)C(=O)N[C@@H](CCCCN)C(=O)N[C@@H](CCCCN)C(=O)N[C@@H](Cc1ccc(O)cc1)C(=O)N[C@@H](CC(C)C)C(N)=O [Y13] | 39.3488 | 16.5864
10 | CC[C@H](C)[C@H](N)C(=O)N[C@@H](CC(N)=O)C(=O)N[C@@H](CC(C)C)C(=O)N[C@@H](CCCCN)C(=O)N[C@@H](C)C(=O)N[C@@H](CCCNC(=N)N)C(=O)N[C@@H](C)C(=O)N[C@@H](C)C(=O)N[C@@H](CC(C)C)C(=O)N[C@@H](C)C(=O)N[C@@H](CCCCN)C(=O)N[C@@H](CCCCN)C(=O)N[C@H](C(=O)N[C@@H](CC(C)C)C(N)=O)[C@@H](C)CC [R6] | 11.7131 | -10.6069
11 | CC[C@H](C)[C@H](N)C(=O)N[C@@H](CC(N)=O)C(=O)N[C@@H](CC(C)C)C(=O)N[C@@H](CCCCN)C(=O)N[C@@H](C)C(=O)N[C@@H](CC(C)C)C(=O)N[C@@H](C)C(=O)N[C@@H](C)C(=O)N[C@@H](CC(C)C)C(=O)N[C@@H](C)C(=O)N[C@@H](CCCCN)C(=O)N[C@@H](CCCCN)C(=O)N1CCC[C@H]1C(=O)N[C@@H](CC(C)C)C(N)=O [P13] | -16.5854 | -11.6187
12 | CC[C@H](C)[C@H](N)C(=O)N[C@@H](CC(N)=O)C(=O)N[C@@H](CC(C)C)C(=O)N[C@@H](CCCCN)C(=O)N[C@@H](CCC(N)=O)C(=O)N[C@@H](CC(C)C)C(=O)N[C@@H](C)C(=O)N[C@@H](C)C(=O)N[C@@H](CC(C)C)C(=O)N[C@@H](C)C(=O)N[C@@H](CCCCN)C(=O)N[C@@H](CCCCN)C(=O)N[C@H](C(=O)N[C@@H](CC(C)C)C(N)=O)[C@@H](C)CC [Q5] | 41.3502 | 0.7115
13 | CC[C@H](C)[C@H](N)C(=O)N[C@@H](CC(N)=O)C(=O)N[C@@H](CC(C)C)C(=O)N[C@@H](CCCCN)C(=O)N[C@@H](C)C(=O)N[C@@H](CC(C)C)C(=O)N[C@@H](C)C(=O)N[C@@H](C)C(=O)N[C@@H](CC(C)C)C(=O)N[C@@H](C)C(=O)N[C@@H](CCCNC(=N)N)C(=O)N[C@@H](CCCCN)C(=O)N[C@H](C(=O)N[C@@H](CC(C)C)C(N)=O)[C@@H](C)CC [R11] | 37.1061 | 5.503
14 | CC[C@H](C)[C@H](N)C(=O)N[C@@H](Cc1c[nH]c2ccccc12)C(=O)N[C@@H](CC(C)C)C(=O)N[C@@H](CCCCN)C(=O)N[C@@H](C)C(=O)N[C@@H](CC(C)C)C(=O)N[C@@H](C)C(=O)N[C@@H](C)C(=O)N[C@@H](CC(C)C)C(=O)N[C@@H](C)C(=O)N[C@@H](CCCCN)C(=O)N[C@@H](CCCCN)C(=O)N[C@H](C(=O)N[C@@H](CC(C)C)C(N)=O)[C@@H](C)CC [W2] | 98.3458 | 92.9669
15 | CC[C@H](C)[C@H](N)C(=O)N[C@@H](CC(N)=O)C(=O)N[C@@H](CC(C)C)C(=O)N[C@@H](CCCCN)C(=O)N[C@@H](C)C(=O)N[C@@H](CC(C)C)C(=O)N[C@@H](C)C(=O)N[C@@H](C)C(=O)N[C@@H](CC(N)=O)C(=O)N[C@@H](C)C(=O)N[C@@H](CCCCN)C(=O)N[C@@H](CCCCN)C(=O)N[C@H](C(=O)N[C@@H](CC(C)C)C(N)=O)[C@@H](C)CC [N9] | 3.242 | 3.083
16 | CC[C@H](C)[C@H](N)C(=O)N[C@@H](CC(N)=O)C(=O)N[C@@H](CC(C)C)C(=O)N[C@@H](CCCCN)C(=O)N[C@@H](C)C(=O)N[C@@H](CO)C(=O)N[C@@H](C)C(=O)N[C@@H](C)C(=O)N[C@@H](CC(C)C)C(=O)N[C@@H](C)C(=O)N[C@@H](CCCCN)C(=O)N[C@@H](CCCCN)C(=O)N[C@H](C(=O)N[C@@H](CC(C)C)C(N)=O)[C@@H](C)CC [S6] | 29.7699 | -17.608
17 | CC[C@H](C)[C@H](N)C(=O)N[C@@H](CC(N)=O)C(=O)N[C@@H](CC(C)C)C(=O)N[C@H](C(=O)N[C@@H](C)C(=O)N[C@@H](CC(C)C)C(=O)N[C@@H](C)C(=O)N[C@@H](C)C(=O)N[C@@H](CC(C)C)C(=O)N[C@@H](C)C(=O)N[C@@H](CCCCN)C(=O)N[C@@H](CCCCN)C(=O)N[C@H](C(=O)N[C@@H](CC(C)C)C(N)=O)[C@@H](C)CC)[C@@H](C)CC [I4] | 30.9221 | 5.736
18 | CC[C@H](C)[C@H](N)C(=O)N[C@@H](Cc1ccc(O)cc1)C(=O)N[C@@H](CC(C)C)C(=O)N[C@@H](CCCCN)C(=O)N[C@@H](C)C(=O)N[C@@H](CC(C)C)C(=O)N[C@@H](C)C(=O)N[C@@H](C)C(=O)N[C@@H](CC(C)C)C(=O)N[C@@H](C)C(=O)N[C@@H](CCCCN)C(=O)N[C@@H](CCCCN)C(=O)N[C@H](C(=O)N[C@@H](CC(C)C)C(N)=O)[C@@H](C)CC [Y2] | 75.0702 | 57.84
19 | CC[C@H](C)[C@H](N)C(=O)N[C@H](C(=O)N[C@@H](CC(C)C)C(=O)N[C@@H](CCCCN)C(=O)N[C@@H](C)C(=O)N[C@@H](CC(C)C)C(=O)N[C@@H](C)C(=O)N[C@@H](C)C(=O)N[C@@H](CC(C)C)C(=O)N[C@@H](C)C(=O)N[C@@H](CCCCN)C(=O)N[C@@H](CCCCN)C(=O)N[C@H](C(=O)N[C@@H](CC(C)C)C(N)=O)[C@@H](C)CC)C(C)C [V2] | 91.4206 | 65.6691
